One data set has as its system ApoA-I mRNA. Kind of data set: Quantification of ApoA-I mRNA in HepG2 cells (real-time PCR). The format is cell-based. On the set-up: key: Active: An active compound was defined as one that caused a ≧20% increase in ApoA-I mRNA at a concentration less than or equal to 100 μM. To be noted: fold induction relative to DMSO control, concentration less than or equal to 100 μM. The essentials:
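HepG2 cells (~2×10^5/well) in MEM with 0.5% (v/v) FBS were plated 24 h before compound addition. Lysate mRNA was captured and run in one-step real-time RT-PCR, with fold induction from Ct values relative to the matching DMSO control. A compound counted as active at ≥20% ApoA-I mRNA increase at ≤100 μM.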

For the next data set, the system named is subjects with low HDL-C. The note with it: cited from earlier work.

This is an account of results in patent US8952021B2, “Compounds for the prevention and treatment of cardiovascular disease” (Resverlogix Corp., priority 2009, dated 2015).

The melting point is the temperature, or range, at which the solid turns liquid.

`Cc1cc(-c2nc3ccccc3c(=O)n2-c2ccc(C(C)C)cc2)cc(C)c1OCCO` [Example 18, 2-(4-(2-hydroxyethoxy)-3,5-dimethylphenyl)-3-(4-isopropylphenyl)quinazolin-4(3H)-one] had a melting point of 160 to 162 °C. Further, the “Effect on ApoA-I mRNA levels” value with ApoA-I mRNA was “Active”.
The compound `Cc1cc(-c2nc3ccccc3c(=O)n2-c2ccc(Br)cc2)ccc1OCCO` [Example 19, 3-(4-bromophenyl)-2-(4-(2-hydroxyethoxy)-3-methylphenyl)quinazolin-4(3H)-one] showed a melting point of 92 to 93 °C. The “Effect on ApoA-I mRNA levels” value with ApoA-I mRNA is “Active”.
The corresponding values for `Cc1cc(-c2nc3c(Cl)cccc3c(=O)n2-c2ccc(Br)cc2)cc(C)c1OCCO` [Example 20, 3-(4-bromophenyl)-8-chloro-2-(4-(2-hydroxyethoxy)-3,5-dimethylphenyl)quinazolin-4(3H)-one] are 185 to 186 °C and “Active”.
As to `Cc1ccc(C)c(OCCCC(C)(C)C(=O)O)c1` [gemfibrozil], in the data set on subjects with low HDL-C, the “increase in the HDL-C level” value is 6% and the “reduction of the CHD risk” value was 22%.
